# Assay results as given in patent US8101550B2, “Anthranilic acid diamide derivative with hetero-aromatic and hetero-cyclic substituents” (Bayer Cropscience AG, priority 2006, dated 2012).
# Assay: log P determination by HPLC on reverse-phase column (EEC Directive 79/831 Annex V.A8)
# Assay type: physicochemical
# Protocol: The log P values stated in the foregoing tables and preparation examples are determined in accordance with EEC Directive 79/831 Annex V.A8 by means of HPLC (High Performance Liquid Chromatography) on a reverse-phase column (C 18). Temperature: 43° C.
# The determination by LC-MS in the acidic range takes place at a pH of 2.7 using 0.1% aqueous formic acid and acetonitrile (containing 0.1% formic acid) as eluents; linear gradient from 10% acetonitrile to 95% acetonitrile.
# Calibration is with unbranched alkan-2-ones (having 3 to 16 carbon atoms) of known log P value (log P values determined from the retention times by linear interpolation between two successive alkanones).
row,Compound,logP
1,Cc1cc(Cl)cc(C(=O)NC(C)C)c1NC(=O)c1cc(Cn2cnc(-c3ccc(Cl)cc3)n2)nn1-c1ncccc1Cl [I-1-154],3.56
2,CNC(=O)c1cc(Cl)cc(C)c1NC(=O)c1cc(Cn2nnc(-c3cc(Cl)nc(Cl)c3)n2)nn1-c1ncccc1Cl [I-1-155],3.69
3,Cc1cc(Cl)cc(C(=O)NC(C)C)c1NC(=O)c1cc(Cn2nnc(-c3cc(Cl)nc(Cl)c3)n2)nn1-c1ncccc1Cl [I-1-156],4.17
4,CSC[C@H](C)NC(=O)c1cc(Cl)cc(C)c1NC(=O)c1cc(Cn2nnc(-c3cc(Cl)nc(Cl)c3)n2)nn1-c1ncccc1Cl [I-1-157],4.36
5,CSC[C@H](C)NC(=O)c1cc(Cl)cc(C)c1NC(=O)c1cc(Cn2nnc(-c3ccc(Cl)nc3)n2)nn1-c1ncccc1Cl [I-1-158],3.67
6,CSC[C@H](C)NC(=O)c1cc(Cl)cc(C)c1NC(=O)c1cc(Cn2cnc(-c3ccc(Cl)nc3)n2)nn1-c1ncccc1Cl [I-1-159],3.78
7,CNC(=O)c1cc(Cl)cc(C)c1NC(=O)c1cc(Cn2cnc(C(C)(C)C)n2)nn1-c1ncccc1Cl [I-1-160],2.39
8,Cc1cc(Cl)cc(C(=O)NC(C)C)c1NC(=O)c1cc(Cn2cnc(C(C)(C)C)n2)nn1-c1ncccc1Cl [I-1-161],2.87
9,CSC[C@H](C)NC(=O)c1cc(Cl)cc(C)c1NC(=O)c1cc(Cn2cnc(C(C)(C)C)n2)nn1-c1ncccc1Cl [I-1-162],3.10
10,CNC(=O)c1cc(Cl)cc(C)c1NC(=O)c1cc(Cn2nnnc2-c2ccc(C(F)(F)F)cc2)nn1-c1ncccc1Cl [I-1-163],3.15
11,CNC(=O)c1cc(Cl)cc(C)c1NC(=O)c1cc(Cn2nnc(-c3ccccc3)n2)nn1-c1ncccc1Cl [I-1-165],3.09
12,Cc1cc(Cl)cc(C(=O)NC(C)C)c1NC(=O)c1cc(Cn2nnc(-c3ccccc3)n2)nn1-c1ncccc1Cl [I-1-166],3.60
13,Cc1cc(Cl)cc(C(=O)N=S(C(C)C)C(C)C)c1NC(=O)c1cc(Cn2nc(C(F)(F)F)nc2C(F)(F)F)nn1-c1ncccc1Cl [I-1-167],4.44
14,Cc1cc(Cl)cc(C(=O)NC(C)C)c1NC(=O)c1cc(Cn2nnn(-c3ccc(Cl)cc3)c2=O)nn1-c1ncccc1Cl [I-1-168],3.79
15,Cc1cc(C#N)cc(C(=O)NC(C)C)c1NC(=O)c1cc(Cn2cc(C(F)(F)C(F)(F)F)c(C(F)(F)C(F)(F)F)n2)nn1-c1ncccc1Cl [I-1-169],4.55
16,CNC(=O)c1cc(C#N)cc(C)c1NC(=O)c1cc(Cn2cc(C(F)(F)C(F)(F)F)c(C(F)(F)C(F)(F)F)n2)nn1-c1ncccc1Cl [I-1-170],4.08
17,CNC(=O)c1cc(C#N)cc(C)c1NC(=O)c1cc(Cn2cc(Cl)c(C(F)(F)C(F)(F)F)n2)nn1-c1ncccc1Cl [I-1-171],3.44
18,Cc1cc(C#N)cc(C(=O)NC(C)C)c1NC(=O)c1cc(Cn2cc(Cl)c(C(F)(F)C(F)(F)F)n2)nn1-c1ncccc1Cl [I-1-172],3.87
19,Cc1cc(C#N)cc(C(=O)NC2CC2)c1NC(=O)c1cc(Cn2cc(Cl)c(C(F)(F)C(F)(F)F)n2)nn1-c1ncccc1Cl [I-1-173],3.59
20,Cc1cc(C#N)cc(C(N)=O)c1NC(=O)c1cc(Cn2cc(Cl)c(C(F)(F)C(F)(F)F)n2)nn1-c1ncccc1Cl [I-1-174],3.20

row,Compound,logP
1,Cc1cc(C#N)cc(C(=O)NCC#N)c1NC(=O)c1cc(Cn2cc(Cl)c(C(F)(F)C(F)(F)F)n2)nn1-c1ncccc1Cl [I-1-175],3.40
2,CNC(=O)c1cc(C#N)cc(C)c1NC(=O)c1cc(Cn2nc(C(F)(F)F)nc2C(F)(F)F)nn1-c1ncccc1Cl [I-1-176],3.11
3,Cc1cc(C#N)cc(C(=O)NC(C)C)c1NC(=O)c1cc(Cn2nc(C(F)(F)F)nc2C(F)(F)F)nn1-c1ncccc1Cl [I-1-177],3.53
4,Cc1cc(C#N)cc(C(=O)NC2CC2)c1NC(=O)c1cc(Cn2nc(C(F)(F)F)nc2C(F)(F)F)nn1-c1ncccc1Cl [I-1-178],3.31
5,Cc1cc(C#N)cc(C(N)=O)c1NC(=O)c1cc(Cn2nc(C(F)(F)F)nc2C(F)(F)F)nn1-c1ncccc1Cl [I-1-179],2.91
6,Cc1cc(C#N)cc(C(=O)NCC#N)c1NC(=O)c1cc(Cn2nc(C(F)(F)F)nc2C(F)(F)F)nn1-c1ncccc1Cl [I-1-180],3.11
7,CNC(=O)c1cc(C#N)cc(C)c1NC(=O)c1cc(Cn2ccc(C(F)(F)F)n2)nn1-c1ncccc1Cl [I-1-181],2.57
8,Cc1cc(C#N)cc(C(=O)NC(C)C)c1NC(=O)c1cc(Cn2ccc(C(F)(F)F)n2)nn1-c1ncccc1Cl [I-1-182],2.96
9,Cc1cc(C#N)cc(C(=O)NC2CC2)c1NC(=O)c1cc(Cn2ccc(C(F)(F)F)n2)nn1-c1ncccc1Cl [I-1-183],2.75
10,Cc1cc(C#N)cc(C(N)=O)c1NC(=O)c1cc(Cn2ccc(C(F)(F)F)n2)nn1-c1ncccc1Cl [I-1-184],2.42
11,Cc1cc(C#N)cc(C(=O)NCC#N)c1NC(=O)c1cc(Cn2ccc(C(F)(F)F)n2)nn1-c1ncccc1Cl [I-1-185],2.62
12,CNC(=O)c1cc(C#N)cc(C)c1NC(=O)c1cc(Cn2nc(C(F)(F)F)cc2C(F)(F)F)nn1-c1ncccc1Cl [I-1-186],3.35
13,Cc1cc(C#N)cc(C(=O)NC(C)C)c1NC(=O)c1cc(Cn2nc(C(F)(F)F)cc2C(F)(F)F)nn1-c1ncccc1Cl [I-1-187],3.80
14,Cc1cc(C#N)cc(C(=O)NC2CC2)c1NC(=O)c1cc(Cn2nc(C(F)(F)F)cc2C(F)(F)F)nn1-c1ncccc1Cl [I-1-188],3.56
15,Cc1cc(C#N)cc(C(N)=O)c1NC(=O)c1cc(Cn2nc(C(F)(F)F)cc2C(F)(F)F)nn1-c1ncccc1Cl [I-1-189],3.15
16,Cc1cc(C#N)cc(C(=O)NCC#N)c1NC(=O)c1cc(Cn2nc(C(F)(F)F)cc2C(F)(F)F)nn1-c1ncccc1Cl [I-1-190],3.28
17,Cc1cc(C#N)cc(C(=O)NC2CC2)c1NC(=O)c1cc(Cn2cc(C(F)(F)C(F)(F)F)c(C(F)(F)C(F)(F)F)n2)nn1-c1ncccc1Cl [I-1-191],4.29
18,Cc1cc(C#N)cc(C(N)=O)c1NC(=O)c1cc(Cn2cc(C(F)(F)C(F)(F)F)c(C(F)(F)C(F)(F)F)n2)nn1-c1ncccc1Cl [I-1-192],3.91
19,Cc1cc(C#N)cc(C(=O)NCC#N)c1NC(=O)c1cc(Cn2cc(C(F)(F)C(F)(F)F)c(C(F)(F)C(F)(F)F)n2)nn1-c1ncccc1Cl [I-1-193],4.04
20,CSCC(C)NC(=O)c1cc(F)cc(C)c1NC(=O)c1cc(Cn2cc(Cl)c(C(F)(F)C(F)(F)F)n2)nn1-c1ncccc1Cl (stereo not drawn) [I-1-195],4.13

row,Compound,logP
1,Cc1cc(F)cc(C(=O)NCc2ccco2)c1NC(=O)c1cc(Cn2cc(Cl)c(C(F)(F)C(F)(F)F)n2)nn1-c1ncccc1Cl [I-1-196],3.90
2,Cc1cc(C#N)cc(C(=O)NC2C3CCCCC32)c1NC(=O)c1cc(Cn2cc(Cl)c(C(F)(F)C(F)(F)F)n2)nn1-c1ncccc1Cl (stereo not drawn) [I-1-197],4.50
3,Cc1cc(C#N)cc(C(=O)NC2CC2CO)c1NC(=O)c1cc(Cn2cc(Cl)c(C(F)(F)C(F)(F)F)n2)nn1-c1ncccc1Cl (stereo not drawn) [I-1-198],3.11
4,Cc1cc(F)cc(C(=O)NC2C3CCCCC32)c1NC(=O)c1cc(Cn2cc(Cl)c(C(F)(F)C(F)(F)F)n2)nn1-c1ncccc1Cl (stereo not drawn) [I-1-199],4.55
5,Cc1cc(Cl)cc(C(=O)NCc2ccco2)c1NC(=O)c1cc(Cn2cc(Cl)c(C(F)(F)C(F)(F)F)n2)nn1-c1ncccc1Cl [I-1-201],4.21
6,Cc1cc(Cl)cc(C(=O)NC2CCCC2N)c1NC(=O)c1cc(Cn2cc(Cl)c(C(F)(F)C(F)(F)F)n2)nn1-c1ncccc1Cl (stereo not drawn) [I-1-202],2.30
7,Cc1cc(F)cc(C(=O)NC2CC2CO)c1NC(=O)c1cc(Cn2cc(Cl)c(C(F)(F)C(F)(F)F)n2)nn1-c1ncccc1Cl (stereo not drawn) [I-1-203],3.14
8,Cc1cc(F)cc(C(=O)NC(C)CS(C)(=O)=O)c1NC(=O)c1cc(Cn2cc(Cl)c(C(F)(F)C(F)(F)F)n2)nn1-c1ncccc1Cl (stereo not drawn) [I-1-204],3.34
9,Cc1cc(Cl)cc(C(=O)NC2C3CCCCC32)c1NC(=O)c1cc(Cn2cc(Cl)c(C(F)(F)C(F)(F)F)n2)nn1-c1ncccc1Cl (stereo not drawn) [I-1-205],4.88
10,CSCC(C)NC(=O)c1cc(Cl)cc(C)c1NC(=O)c1cc(Cn2cc(Cl)c(C(F)(F)C(F)(F)F)n2)nn1-c1ncccc1Cl (stereo not drawn) [I-1-206],4.41
11,Cc1cc(Cl)cc(C(=O)NC2CC2CO)c1NC(=O)c1cc(Cn2cc(Cl)c(C(F)(F)C(F)(F)F)n2)nn1-c1ncccc1Cl (stereo not drawn) [I-1-207],3.37
12,Cc1cc(C#N)cc(C(=O)NCc2ccco2)c1NC(=O)c1cc(Cn2cc(Cl)c(C(F)(F)C(F)(F)F)n2)nn1-c1ncccc1Cl [I-1-208],3.90
13,CSCC(C)NC(=O)c1cc(C#N)cc(C)c1NC(=O)c1cc(Cn2cc(Cl)c(C(F)(F)C(F)(F)F)n2)nn1-c1ncccc1Cl (stereo not drawn) [I-1-209],4.05
14,Cc1cc(C#N)cc(C(=O)NC(C)CS(C)(=O)=O)c1NC(=O)c1cc(Cn2cc(Cl)c(C(F)(F)C(F)(F)F)n2)nn1-c1ncccc1Cl (stereo not drawn) [I-1-210],3.34
15,Cc1cc(C#N)cc(C(=O)NC(C)C[S+](C)[O-])c1NC(=O)c1cc(Cn2cc(Cl)c(C(F)(F)C(F)(F)F)n2)nn1-c1ncccc1Cl (stereo not drawn) [I-1-211],3.02
16,Cc1cc(Cl)cc(C(=O)NC(C)C[S+](C)[O-])c1NC(=O)c1cc(Cn2cc(Cl)c(C(F)(F)C(F)(F)F)n2)nn1-c1ncccc1Cl (stereo not drawn) [I-1-212],3.25
17,Cc1cc(Cl)cc(C(=O)NC(C)CS(C)(=O)=O)c1NC(=O)c1cc(Cn2cc(Cl)c(C(F)(F)C(F)(F)F)n2)nn1-c1ncccc1Cl (stereo not drawn) [I-1-213],3.60
18,Cc1cc(Cl)cc(C(=O)NC(CN2CCCCC2)C2CC2)c1NC(=O)c1cc(Cn2cc(Cl)c(C(F)(F)C(F)(F)F)n2)nn1-c1ncccc1Cl (stereo not drawn) [I-1-214],2.77
19,CCN(CC)CC(C)NC(=O)c1cc(Cl)cc(C)c1NC(=O)c1cc(Cn2cc(Cl)c(C(F)(F)C(F)(F)F)n2)nn1-c1ncccc1Cl (stereo not drawn) [I-1-215],2.62
20,Cc1cc(F)cc(C(=O)NC(C)C[S+](C)[O-])c1NC(=O)c1cc(Cn2cc(Cl)c(C(F)(F)C(F)(F)F)n2)nn1-c1ncccc1Cl (stereo not drawn) [I-1-216],3.03
